Measurements: the supplement of paper PMC4858399
Where a name gives a salt, the structure may show the parent alone.

Tests used:
[1] = test system: Caenorhabditis elegans N2; assay: mean nematode size ln(EXT) after 48 h, plate-adjusted (DMSO control set to 6) (ln(EXT), control-adjusted); higher = larger nematodes / less growth inhibition; conditions: exposure time 48 h
Summary of the method: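 Worms were measured individually for extinction on the Biosort after 48 h at 20°C. They began as synchronised C. elegans N2 L1 larvae in K-medium with killed OP50, 1% DMSO and 0.5–200 µM chemical. Once debris had been removed by a growth model, values were natural-logged and averaged per well to give mean size. The plate adjustment subtracted the vehicle control mean and added 6.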

[2] = test system: Caenorhabditis elegans N2; assay: lowest effective concentration for larval growth inhibition (size below effect threshold); higher = less potent; conditions: exposure time 48 h
Summary of the method: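 C. elegans N2 L1 larvae (50 per 96-well) were grown 48 h at 20°C in K-medium with killed bacteria, 1% DMSO and 0.5, 1, 5, 10, 50, 100 or 200 µM chemical. The Biosort measured per-worm extinction as size, and these were log-transformed into well means. The lowest effective concentration is the first dose where the plate-adjusted mean size drops under the 5.665 threshold and stays under it at higher doses.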

| Compound | mean nematode size ln(EXT) (ln) ([1]; 0.5 µM) | mean nematode size ln(EXT) (ln) ([1]; 1 µM) | mean nematode size ln(EXT) (ln) ([1]; 5 µM) | mean nematode size ln(EXT) (ln) ([1]; 10 µM) | mean nematode size ln(EXT) (ln) ([1]; 50 µM) | mean nematode size ln(EXT) (ln) ([1]; 100 µM) | mean nematode size ln(EXT) (ln) ([1]; 200 µM) | lowest effective concentration [2] |
| --- | --- | --- | --- | --- | --- | --- | --- | --- |
| CCCC(=O)OCC [Ethyl butyrate] | 5.9 | 5.93 | 5.96 | 6.03 | 5.94 | 5.91 | 5.82 | > 200 µM |
| CCCCCCOCCO [Ethylene glycol monohexyl ether] | 5.81 | 6.03 | 5.9 | 5.93 | 5.72 | 5.89 | 5.77 | > 200 µM |
| S=C1NCCN1 [Ethylenethiourea] | 6.18 | 5.97 | 6.08 | 6.19 | 6.12 | 6.12 | 5.69 | > 200 µM |
| CCOC(=O)c1ccc(O)cc1 [Ethylparaben] | 5.98 | 5.82 | 5.93 | 5.81 | 5.84 | 5.84 | 5.74 | > 200 µM |
| C=CCc1ccc(O)c(OC)c1 [Eugenol] | 5.89 | 5.9 | 5.93 | 5.98 | 5.91 | 5.87 | 5.77 | > 200 µM |
| CCN(Cc1cccc(S(=O)(=O)O)c1)c1ccc(C(=C2C=CC(=[N+](CC)Cc3cccc(S(=O)(=O)O)c3)C=C2)c2ccccc2S(=O)(=O)[O-])cc1 [FD & C Blue no. 1] | 5.85 | 5.87 | 5.91 | 5.88 | 5.89 | 5.92 | 5.89 | > 200 µM |
| O=S(=O)(O)c1ccc(N=Nc2c(O)ccc3cc(S(=O)(=O)O)ccc23)cc1 [FD&C Yellow no. 6] | 5.95 | 5.86 | 5.74 | 5.85 | 5.89 | 5.91 | 5.84 | > 200 µM |
| CCc1cc(C2=C(C(=O)O)N(c3ccccc3C(F)(F)F)S(=O)(=O)c3ccccc32)cc2c1OCO2 [Fandosentan potassium salt] | 5.81 | 5.82 | 5.89 | 5.85 | 5.75 | 5.75 | 5.69 | > 200 µM |
| Cc1ccn2nc(S(=O)(=O)Nc3c(F)cccc3F)nc2n1 [Flumetsulam] | 5.91 | 5.95 | 6.03 | 6.05 | 5.93 | 6.02 | 5.88 | > 200 µM |
| C#CCN1C(=O)COc2cc(F)c(N3C(=O)C4=C(CCCC4)C3=O)cc21 [Flumioxazin] | 5.98 | 5.91 | 5.92 | 5.99 | 5.98 | 5.87 | 6 | > 200 µM |
| CN(C)C(=O)Nc1cccc(C(F)(F)F)c1 [Fluometuron] | 6.02 | 6.11 | 6.08 | 6.02 | 5.87 | 6.07 | 5.78 | > 200 µM |
| COC(=O)CSc1cc(/N=c2\sc(=O)n3n2CCCC3)c(F)cc1Cl [Fluthiacet-methyl] | 5.92 | 5.93 | 5.96 | 5.96 | 5.98 | 5.95 | 5.92 | > 200 µM |
| Nc1nc(=O)c2nc(CNc3ccc(C(=O)N[C@@H](CCC(=O)O)C(=O)O)cc3)cnc2[nH]1 [Folic acid] | 6.04 | 5.96 | 5.91 | 6.04 | 6.02 | 6 | 5.82 | > 200 µM |
| O=Cc1ccco1 [Furfural] | 5.92 | 5.88 | 5.88 | 5.91 | 5.95 | 5.83 | 5.82 | > 200 µM |
| CC(C)=CCC/C(C)=C/CO [Geraniol] | 5.92 | 5.94 | 5.89 | 6.03 | 5.99 | 6.04 | 5.72 | > 200 µM |
| OCC1CO1 (stereo not given) [Glycidol] | 5.87 | 5.79 | 5.81 | 5.79 | 5.78 | 5.49 | 5.83 | > 200 µM |
| CCCCCCC(=O)OCC [Heptanoic acid, ethyl ester] | 5.88 | 5.93 | 5.82 | 6.08 | 5.85 | 5.89 | 6.02 | > 200 µM |
| CCCCCCCCCCCCCCCC [Hexadecane] | 5.93 | 5.9 | 5.89 | 5.89 | 5.86 | 5.83 | 5.72 | > 200 µM |
| C1N2CN3CN1CN(C2)C3 [Hexamethylenetetramine] | 5.69 | 5.77 | 5.6 | 5.54 | 5.51 | 5.41 | 5.6 | 5 µM |
| N#CCCCCC#N [Hexanedinitrile] | 5.89 | 5.82 | 5.87 | 5.81 | 5.96 | 5.75 | 5.8 | > 200 µM |
| CCCCCC(=O)O [Hexanoic acid] | 5.99 | 5.88 | 5.83 | 5.84 | 5.83 | 5.87 | 5.79 | > 200 µM |
| NS(=O)(=O)c1cc2c(cc1Cl)NCNS2(=O)=O [Hydrochlorothiazide] | 5.86 | 5.85 | 5.85 | 5.83 | 5.76 | 5.46 | 5.83 | > 200 µM |
| Oc1ccc(O)cc1 [Hydroquinone] | 5.99 | 6.02 | 6.04 | 6.02 | 6.1 | 6.09 | 5.72 | > 200 µM |
| NC(=O)NO [Hydroxyurea] | 6 | 5.97 | 5.92 | 5.93 | 5.75 | 5.63 | 5.73 | > 200 µM |
| CCC(C)OC(=O)N1CCCCC1CCO (stereo not given) [Icaridin] | 5.45 | 5.77 | 5.76 | 6.03 | 5.43 | 5.79 | 5.97 | > 200 µM |
| COCc1cnc(C2=NC(C)(C(C)C)C(=O)N2)c(C(=O)O)c1 (stereo not given) [Imazamox] | 5.93 | 5.93 | 5.91 | 5.96 | 6 | 6.01 | 5.83 | > 200 µM |
| CC(C)C1(C)N=C(c2ncccc2C(=O)O)NC1=O (stereo not given) [Imazapyr] | 5.84 | 5.98 | 6.01 | 5.97 | 5.9 | 5.84 | 5.77 | > 200 µM |
| CC(C)C1(C)N=C(c2nc3ccccc3cc2C(=O)O)NC1=O (stereo not given) [Imazaquin] | 6.13 | 6.14 | 6.13 | 6.33 | 6.08 | 6.06 | 6.1 | > 200 µM |

| Compound | mean nematode size ln(EXT) (ln) ([1]; 0.5 µM) | mean nematode size ln(EXT) (ln) ([1]; 1 µM) | mean nematode size ln(EXT) (ln) ([1]; 5 µM) | mean nematode size ln(EXT) (ln) ([1]; 10 µM) | mean nematode size ln(EXT) (ln) ([1]; 50 µM) | mean nematode size ln(EXT) (ln) ([1]; 100 µM) | mean nematode size ln(EXT) (ln) ([1]; 200 µM) | lowest effective concentration [2] |
| --- | --- | --- | --- | --- | --- | --- | --- | --- |
| CCc1cnc(C2=NC(C)(C(C)C)C(=O)N2)c(C(=O)O)c1 (stereo not given) [Imazethapyr] | 5.99 | 5.93 | 6.06 | 6.15 | 6.12 | 6.24 | 6.05 | > 200 µM |
| [As]#[In] [Indium arsenide] | 5.78 | 5.76 | 5.77 | 5.75 | 5.54 | 5.53 | 5.86 | > 200 µM |
| COc1ccc2c(c1)c(CC(=O)O)c(C)n2C(=O)c1ccc(Cl)cc1 [Indomethacin] | 6.03 | 5.93 | 5.95 | 5.96 | 5.93 | 5.93 | 5.83 | > 200 µM |
| COC(=O)c1ccc(I)cc1S(=O)(=O)NC(=O)Nc1nc(C)nc(OC)n1 [Iodosulfuron-methyl-sodium] | 6.1 | 6.11 | 5.88 | 6.04 | 6.15 | 6.07 | 5.89 | > 200 µM |
| CC(=O)OCCC(C)C [Isoamyl acetate] | 5.95 | 5.84 | 5.89 | 5.79 | 5.86 | 5.83 | 5.75 | > 200 µM |
| CCCC(=O)OCCC(C)C [Isoamyl butyrate] | 5.92 | 5.91 | 5.91 | 6.05 | 5.81 | 5.9 | 6.13 | > 200 µM |
| C/C=C\c1ccc(O)c(OC)c1 [Isoeugenol] | 5.87 | 5.92 | 5.95 | 6.01 | 5.87 | 5.85 | 5.88 | > 200 µM |
| NNC(=O)c1ccncc1 [Isoniazid] | 5.78 | 5.82 | 5.77 | 5.64 | 5.82 | 5.88 | 5.65 | 200 µM |
| CC1=CC(=O)CC(C)(C)C1 [Isophorone] | 5.84 | 5.72 | 5.76 | 5.71 | 5.75 | 5.94 | 5.79 | > 200 µM |
| CC(C)NCC(O)c1ccc(O)c(O)c1 (stereo not given) [Isoprenaline hydrochloride] | 5.94 | 5.97 | 5.91 | 5.94 | 5.95 | 5.54 | 5.84 | > 200 µM |
| CCC(C)(CC)c1cc(NC(=O)c2c(OC)cccc2OC)on1 [Isoxaben] | 5.88 | 5.93 | 6.01 | 6.02 | 5.92 | 6.03 | 5.93 | > 200 µM |
| N[C@@H](Cc1c[nH]c2ccccc12)C(=O)O [L-Tryptophan] | 5.91 | 5.87 | 5.89 | 5.86 | 5.85 | 5.96 | 5.7 | > 200 µM |
| Cc1cc(Cl)ccc1OCC(=O)O [MCPA] | 5.99 | 6.05 | 6.18 | 6.02 | 6.09 | 6.02 | 5.9 | > 200 µM |
| CCOC(=O)CC(SP(=O)(OC)OC)C(=O)OCC (stereo not given) [Malaoxon] | 5.9 | 5.85 | 6.21 | 5.99 | 5.89 | 5.94 | 5.83 | > 200 µM |
| O=c1ccc(=O)[nH][nH]1 [Maleic hydrazide] | 6.04 | 5.94 | 5.94 | 5.96 | 5.96 | 5.9 | 6.03 | > 200 µM |
| Cc1occc(=O)c1O [Maltol] | 6.08 | 5.97 | 6.02 | 6.07 | 6 | 5.93 | 5.76 | > 200 µM |
| C[N+]1(C)CCCCC1 [Mepiquat chloride] | 5.73 | 5.8 | 6 | 5.91 | 5.96 | 6.13 | 5.9 | > 200 µM |
| COCC(=O)N(c1c(C)cccc1C)C(C)C(=O)OC (stereo not given) [Metalaxyl] | 6.15 | 6.19 | 6.16 | 6 | 6.14 | 6.18 | 5.98 | > 200 µM |
| C=C(C)C(N)=O [Methacrylamide] | 6.05 | 5.91 | 5.89 | 5.82 | 6.01 | 5.82 | 5.86 | > 200 µM |
| COP(N)(=O)SC (stereo not given) [Methamidophos] | 5.74 | 5.85 | 5.85 | 5.88 | 5.89 | 5.93 | 5.87 | > 200 µM |
| Cn1ccnc1S [Methimazole] | 5.77 | 5.89 | 5.88 | 5.83 | 5.91 | 5.9 | 5.95 | > 200 µM |
| CN(Cc1cnc2nc(N)nc(N)c2n1)c1ccc(C(=O)N[C@@H](CCC(=O)O)C(=O)O)cc1 [Methotrexate] | 5.83 | 5.86 | 5.81 | 5.85 | 5.84 | 5.82 | 5.75 | > 200 µM |
| COCCO [Methyl cellusolve] | 5.86 | 5.94 | 6.08 | 6.07 | 5.99 | 6.03 | 6.06 | > 200 µM |
| COC(=O)c1ccccc1C(=O)O [Methyl hydrogen phthalate] | 6.07 | 6.01 | 6.1 | 6.07 | 6.14 | 6.14 | 5.95 | > 200 µM |
| COS(C)(=O)=O [Methyl methanesulfonate] | 5.92 | 5.9 | 5.9 | 5.87 | 5.81 | 5.52 | 5.89 | > 200 µM |
| C=CCc1ccc(OC)c(OC)c1 [Methyleugenol] | 6 | 5.97 | 6.02 | 5.98 | 5.99 | 5.99 | 5.7 | > 200 µM |
| COC(=O)c1ccc(O)cc1 [Methylparaben] | 6.02 | 5.99 | 5.95 | 6.11 | 6.02 | 6.06 | 5.7 | > 200 µM |
